For the assay, the system named is nude mice, A549 intrarenal xenograft, tumor weight change. Nature of the assay: NCI In Vivo Anticancer Drug Screen. Data for tumor model A549 Human Adenocarcinoma of Lung with characteristics of Type II Alveolar Epithelial cells (intrarenal inoculation) in NU/NU BALB/C (nude) mice. The conditions noted are these: endpoint: mean tumor weight change, schedule: Q04DX003 (ip), higher = larger tumour. How it is done:
The antitumor activity of compounds was measured in mice bearing transplantable tumors. Survival or tumor size were measured and the results are expressed as the measurement made in the treated group (T) divided by the measurement made in the vehicle treated control group (C). The tumor model used in this assay is A549 Human Adenocarcinoma of Lung with characteristics of Type II Alveolar Epithelial cells (intrarenal inoculation) in NU/NU BALB/C (nude) mice

[1] abbreviates: dose: 1.25 mg/kg/injection, vehicle: saline + alcohol.
The mark [2] stands for this setting: dose: 2.5 mg/kg/injection, vehicle: saline + alcohol.
Where [3] appears, read: dose: 25.0 mg/kg/injection, vehicle: saline.
Where [4] appears, read: dose: 50.0 mg/kg/injection, vehicle: saline.
The mark [5] stands for this setting: dose: 150.0 mg/kg/injection, vehicle: saline.
Setting [6] is: dose: 150.0 mg/kg/injection, vehicle: saline with Tween-80.
The mark [7] stands for this setting: dose: 25.0 mg/kg/injection, vehicle: saline with Tween-80.
[8] abbreviates: dose: 50.0 mg/kg/injection, vehicle: saline with Tween-80.
Setting [9] is: dose: 12.5 mg/kg/injection, vehicle: saline with Tween-80.
The mark [10] stands for this setting: dose: 300.0 mg/kg/injection, vehicle: saline.

“And” between values parts separate entries of the source, which are not always exact repeats. Equal values may be shown once. Inconclusive results are not listed.

Consider `COC1=C(C)C(=O)C2=C(C1=O)C(CO)N1C(C#N)C3CC4C(C1C2N1CCOC41)N3C` (configuration not stated), for which the T/C under setting [1] was 117 % of control and the T/C under setting [2] was 45 % of control.
Regarding `ClCCCSSCCCCl`, the T/C is, setting by setting: (dose: 62.5 mg/kg/injection, vehicle: saline with Tween-80) 56 % of control; (dose: 125.0 mg/kg/injection, vehicle: saline with Tween-80) 76 % of control; (dose: 250.0 mg/kg/injection, vehicle: saline with Tween-80) 81 % of control; (dose: 500.0 mg/kg/injection, vehicle: saline with Tween-80) 82 % of control.
Consider `CC(=O)/C(=C\c1ccc(Cl)c(Cl)c1)C(=O)CCN(C)C`, for which the T/C (dose: 12.5 mg/kg/injection, vehicle: saline) was 78 % of control; the T/C under setting [3] is 39 % of control; the T/C under setting [4] is 32 % of control.
With `C/C(=N\NC(=O)c1ccccc1O)c1cccc(/C(C)=N/NC(=O)c2ccccc2O)n1`, the T/C by setting is: under setting [3], 97 % of control; under setting [4], 71 % of control; (dose: 100.0 mg/kg/injection, vehicle: saline) 65 % of control; (dose: 200.0 mg/kg/injection, vehicle: saline) 77 % of control.
Consider `O=C(Oc1ccccc1)c1cc(O)c(O)c(O)c1`, for which the T/C by setting is: (dose: 18.75 mg/kg/injection, vehicle: saline) 60 % of control; (dose: 37.5 mg/kg/injection, vehicle: saline) 80 % of control; (dose: 75.0 mg/kg/injection, vehicle: saline) 50 % of control; under setting [5], 62 % of control.
Turning to `S=C(NCNC(=S)c1ccncc1)c1ccncc1`, the T/C was 420 % of control under setting [6]; 260 % of control (dose: 300.0 mg/kg/injection, vehicle: saline with Tween-80); 317 % of control (dose: 600.0 mg/kg/injection, vehicle: saline with Tween-80).
For the compound `CCOC(=O)C1=C(C)O/C(=C/c2cccc(Cl)c2)C1=O`, the T/C is, setting by setting: under setting [7], 48 % of control; under setting [8], 51 % of control; (dose: 100.0 mg/kg/injection, vehicle: saline with Tween-80) 77 % of control; (dose: 200.0 mg/kg/injection, vehicle: saline with Tween-80) 18 % of control.
With `N#Cc1c(N)[nH]c2ccc(Sc3ccccc3)cc12`, the T/C is 106 % of control (dose: 30.0 mg/kg/injection, vehicle: saline); 42 % of control (dose: 60.0 mg/kg/injection, vehicle: saline); 49 % of control (dose: 240.0 mg/kg/injection, vehicle: saline).
Turning to `CC(C)N1C(=O)N(Cl)C2C1N(Cl)C(=O)N2Cl` (configuration not stated), the T/C under setting [9] was 51 % of control and 76 % of control; the T/C under setting [7] is 18 % of control.
`CCOC(=O)/N=[N+](\[O-])c1ccccc1`: the T/C runs as follows: under setting [9], 156 % of control; under setting [7], 245 % of control; under setting [8], 217 % of control.
On to `COc1ccc(N=N/N=c2\sc3cc(OC)ccc3n2C)cc1`, for which the T/C was 100 % of control (dose: 30.0 mg/kg/injection, vehicle: saline with Tween-80); 87 % of control (dose: 60.0 mg/kg/injection, vehicle: saline with Tween-80); 73 % of control (dose: 120.0 mg/kg/injection, vehicle: saline with Tween-80); 37 % of control (dose: 240.0 mg/kg/injection, vehicle: saline with Tween-80).
As for `Nc1ncnc2c1nc(Cl)n2C1OC2COP(=O)(O)OC2C1O` (configuration not stated), the T/C was 198 % of control (dose: 25.0 mg/kg/injection, vehicle: water) and 85 % of control (dose: 50.0 mg/kg/injection, vehicle: water).
On to `CCOc1ccc(-c2nc3ccc(-c4nc5ccc(N6CCN(C)CC6)cc5[nH]4)cc3[nH]2)cc1`, for which the T/C is, setting by setting: (dose: 6.25 mg/kg/injection, vehicle: saline) 155 % of control; under setting [3], 101 % of control; under setting [4], 171 % of control.
Turning to `Nc1ccc(S(=O)(=O)Nc2cnc3c(Cl)cccc3n2)cc1`, the T/C by setting is: (dose: 220.0 mg/kg/injection, vehicle: saline) 70 % of control; (dose: 315.0 mg/kg/injection, vehicle: saline) 53 % of control; (dose: 450.0 mg/kg/injection, vehicle: saline) 43 % of control; (dose: 642.9 mg/kg/injection, vehicle: saline) 52 % of control.
Turning to `O=C(O)C1CC(O)CN1` (configuration not stated), the T/C runs as follows: under setting [5], 70 % of control; under setting [10], 65 % of control; (dose: 600.0 mg/kg/injection, vehicle: saline) 110 % of control; (dose: 1200.0 mg/kg/injection, vehicle: saline) 71 % of control.
For `COC(=O)NC1C(C)OC(OC2C/C=C(/C)C3C=CC4C(OC5CC(OC6CC(OC7CC(O)C(O)C(C)O7)C(OC7CC(O)C(OC)C(C)O7)C(C)O6)C(O)C(C)O5)C(C)CC(C)C4C3(C)/C(O)=C3\C(=O)OC4(CC(C)C(CO)=CC4/C=C\2C)C3=O)CC1(C)[N+](=O)[O-]` (configuration not stated), the T/C is 69 % of control (dose: 9.38 mg/kg/injection, vehicle: water); 58 % of control (dose: 18.75 mg/kg/injection, vehicle: water); 76 % of control (dose: 37.5 mg/kg/injection, vehicle: water).
In the case of `Cc1ccc(NN=O)nc1`, the T/C runs as follows: (dose: 5.0 mg/kg/injection, vehicle: water) 79 % of control; (dose: 10.0 mg/kg/injection, vehicle: water) 81 % of control; (dose: 20.0 mg/kg/injection, vehicle: water) 61 % of control; (dose: 40.0 mg/kg/injection, vehicle: water) 33 % of control.
On to `COc1cc2c[n+](C)c3c(c2cc1OC)Cc1cc2c(cc1-3)OCO2`, for which, under “dose: 18.75 mg/kg/injection, vehicle: saline with Tween-80”, the T/C is 39 % of control.
In the case of `Cc1cc(O)c2c(c1O)C(=O)C13C(=C2O)C(=O)C2C(O)C1C1C(O)C3C(=O)C3=C(O)c4c(O)cc(C)c(O)c4C(=O)C321` (configuration not stated), the T/C is 172 % of control (dose: 1.0 mg/kg/injection, vehicle: saline with Tween-80) and 112 % of control (dose: 2.0 mg/kg/injection, vehicle: saline with Tween-80).
As for `CC1OC2CC(O)C1(O)C1=C2C(O)=C(C(N)=O)C(=N)C1=O` (configuration not stated), the T/C is 66 % of control (dose: 0.63 mg/kg/injection, vehicle: saline + alcohol); 48 % of control under setting [1]; 35 % of control under setting [2]; 94 % of control (dose: 5.0 mg/kg/injection, vehicle: saline + alcohol).
For `CCCCCCNc1nc(NCCCCCC)c2[nH]c(NCCCCCC)nc2n1`, the T/C runs as follows: (dose: 75.0 mg/kg/injection, vehicle: saline with Tween-80) 52 % of control; under setting [6], 117 % of control.
On to `c1cn[nH]c1`, for which the T/C reads like this: (dose: 113.9 mg/kg/injection, vehicle: saline) 93 % of control; (dose: 151.9 mg/kg/injection, vehicle: saline) 47 % of control; (dose: 202.5 mg/kg/injection, vehicle: saline) 63 % of control; under setting [10], 46 % of control.
For the compound `CCOc1ccc(C(C)c2cc3c(cc2OC)OCO3)cc1` (configuration not stated), the T/C is, setting by setting: (dose: 100.0 mg/kg/injection, vehicle: distilled water + Tween-80) 61 % of control; (dose: 200.0 mg/kg/injection, vehicle: distilled water + Tween-80) 59 % of control; (dose: 400.0 mg/kg/injection, vehicle: distilled water + Tween-80) 63 % of control.

Values taken from PubChem BioAssay AID278 (DTP/NCI, 2004).
